Laboratory results reported in PMC9127750, “Structure-based design of CDC42 effector interaction inhibitors for the treatment of cancer” (Cell reports, 2022).
Where “and” joins values, the source holds several entries; their conditions need not be identical. Equal values may be shown once.

Test system: WM3248 melanoma cells, 486 antibodies
Assay: Reverse phase protein arrays (RPPA)
Type: cell-based, Human
Description: Pellets were snap frozen in liquid nitrogen and shipped to MD Anderson Cancer Center core RPPA facility for RPPA analysis (Table S5). Three biological replicates for each sample were generated.
Nomenclatures on the RPPA heatmaps: name_of_antibody.species_of_antibody.status_of_antibody. V - antibody validated; C - validation of antibody in progress; Q - antibody nonspecific; E – under evaluation; antibodies raised in M - mouse, G - goat, R - rabbit, or T - rat.

[1] = level 10 normalized to 0, mean of 3
[2] = level 10 normalized to 0, single replicates

## CN(C)c1cccc(Nc2cc(-c3ccccc3)nc(C3CCNCC3)n2)c1 [ARN22089, N1,N1-dimethyl-N3-(6-phenyl-2-(piperidin-4-yl)pyrimidin-4-yl)benzene-1,3-diamine]
Level 5 vs 0, replicates
  INPP4b.R.C Norm_5: 0.976 and 1.019
  IR.b.R.C Norm_5: 1.056 and 1.010
  IRF.1.R.V Norm_5: 0.974 and 0.981 and 1.030
  IRF.3.R.V Norm_5: 0.924 and 0.890 and 0.996
  IRS1.R.V Norm_5: 1.029 and 1.046 and 0.995
  IRS2.R.C Norm_5: 1.195 and 0.736 and 1.046
  JAB1.M.C Norm_5: 0.954 and 0.981 and 0.972
  JNK2.R.V Norm_5: 0.643 and 1.507
  JNK_pT183_Y185.R.C Norm_5: 1.060 and 0.929 and 0.988
  Jagged1.R.V Norm_5: 1.010 and 1.054 and 0.889
  Jak2.R.V Norm_5: 0.979 and 0.991
  KAP1.R.V Norm_5: 1.116 and 1.063 and 1.099
  KEAP1.R.V Norm_5: 1.026 and 0.913 and 0.925
  LAD1.R.V Norm_5: 0.952 and 0.910 and 1.029
  LC3A.B.R.C Norm_5: 1.119 and 0.843
  LCN2.R.V Norm_5: 1.996 and 0.913 and 0.985
  LDHA.R.C Norm_5: 1.253 and 1.735 and 0.318
  LRP6_pS1490.R.V Norm_5: 1.015 and 1.011 and 1.114
  Lasu1.R.V Norm_5: 0.982 and 1.009 and 0.926
  Lck.R.V Norm_5: 1.005 and 1.060 and 0.966
  Lyn.R.V Norm_5: 0.801 and 0.941 and 0.791
  MACC1.R.V Norm_5: 0.899 and 0.883 and 1.061
  MAPK_pT202_Y204.R.C Norm_5: 1.017 and 0.736 and 0.856
  MCT4.R.V Norm_5: 1.005 and 0.979 and 1.159
  MDM2_pS166.R.V Norm_5: 1.021 and 1.261 and 0.787
  MEK1.R.V Norm_5: 1.082 and 0.785 and 1.201
  MEK1_pS217_S221.R.V Norm_5: 0.926
  MEK2.R.V Norm_5: 1.048 and 1.127 and 0.942
  MERIT40.R.C Norm_5: 0.988 and 1.019 and 0.961
  MERIT40_pS29.R.V Norm_5: 1.133 and 1.001
  METTL3.R.V Norm_5: 0.968 and 1.099 and 0.891
  MIF.R.C Norm_5: 0.931 and 0.965 and 0.948
  MIG6.R.V Norm_5: 0.932 and 0.886 and 1.000
  MITF.R.V Norm_5: 0.975 and 1.014
  MLH1.M.V Norm_5: 0.900 and 0.937 and 0.942
  MLKL.R.V Norm_5: 0.966 and 0.982 and 0.886
  MMP2.R.V Norm_5: 0.925 and 0.948 and 0.967
  MMP14.R.V Norm_5: 1.097 and 1.257
  MR1.M.C Norm_5: 0.897 and 0.992
  MRAP.R.C Norm_5: 1.109 and 1.057 and 0.987
  MSH2.R.C Norm_5: 0.939 and 1.022 and 0.901
  MSH6.R.C Norm_5: 1.190 and 0.909
  MSI2.R.C Norm_5: 1.108 and 1.110 and 1.024
  MTCO1.M.V Norm_5: 0.944 and 0.964 and 1.334
  MTSS1.M.C Norm_5: 0.924 and 0.926 and 1.000
  Mcl.1.R.V Norm_5: 0.943 and 0.925 and 1.013
  MelanA.R.C Norm_5: 0.973 and 1.097
  Melanoma.gp100.R.C Norm_5: 1.016
  Merlin.R.C Norm_5: 1.257 and 0.725
  Midkine.R.V Norm_5: 0.866 and 0.942 and 0.987
  Mitofusin.1.R.V Norm_5: 1.058 and 0.973
  Mitofusin.2.R.V Norm_5: 0.945
  Mnk1.R.V Norm_5: 1.014 and 0.983
  mTOR.R.V Norm_5: 1.006 and 1.101 and 0.990
  mTOR_pS2448.R.C Norm_5: 1.104 and 1.133 and 1.002
[1]
  TSC1.R.C Norm_10 Average: 0.899
  TTF1.R.V Norm_10 Average: 1.078
  TUFM.R.V Norm_10 Average: 1.221
  Tuberin.R.V Norm_10 Average: 0.835
  Tuberin_pT1462.R.V Norm_10 Average: 1.064
  Twist.M.C Norm_10 Average: 1.019
  Tyro3.R.V Norm_10 Average: 1.386
  U.Histone.H2B.R.C Norm_10 Average: 0.890
  UBAC1.R.V Norm_10 Average: 1.014
  UBQLN4.M.C Norm_10 Average: 0.961
  UGT1A.M.V Norm_10 Average: 1.050
  UQCRC2.M.C Norm_10 Average: 1.112
  UVRAG.R.C Norm_10 Average: 0.935
  VASP.R.V Norm_10 Average: 0.873
  VAV1.R.C Norm_10 Average: 0.923
  VEGFR.2.R.V Norm_10 Average: 0.957
  VEGFR.2_pY1175.R.C Norm_10 Average: 0.964
  VHL.EPPK1.M.C Norm_10 Average: 1.030
  VHL.R.C Norm_10 Average: 0.986
  Vinculin.M.V Norm_10 Average: 0.988
  WIPI1.R.C Norm_10 Average: 1.318
  WIPI2.R.C Norm_10 Average: 0.944
  WTAP.R.V Norm_10 Average: 1.224
  Wee1.R.C Norm_10 Average: 0.915
  Wee1_pS642.R.C Norm_10 Average: 0.900
  XBP.1.G.C Norm_10 Average: 1.193
  XIAP.R.C Norm_10 Average: 0.978
  XPA.M.V Norm_10 Average: 0.978
  XPF.R.C Norm_10 Average: 0.977
  YAP.R.C Norm_10 Average: 1.029
  YB1_pS102.R.V Norm_10 Average: 0.937
  YES1.R.V Norm_10 Average: 1.017
  YTHDF3.R.C Norm_10 Average: 1.101
  ZAP.70.R.V Norm_10 Average: 0.957
  ZEB1.R.V Norm_10 Average: 0.964
[2]
  TSC1.R.C Norm_10_1 to Norm_10_3: 0.905 and 0.842
  TTF1.R.V Norm_10_1 to Norm_10_3: 1.022 and 0.970 and 1.241
  TUFM.R.V Norm_10_1 to Norm_10_3: 0.423 and 1.882 and 1.360
  Tuberin.R.V Norm_10_1 to Norm_10_3: 1.169 and 0.526 and 0.811
  Tuberin_pT1462.R.V Norm_10_1 to Norm_10_3: 1.492 and 0.717 and 0.984
  Twist.M.C Norm_10_1 to Norm_10_3: 1.114 and 1.030
  Tyro3.R.V Norm_10_1 to Norm_10_3: 1.080 and 1.777 and 1.302
  U.Histone.H2B.R.C Norm_10_1 to Norm_10_3: 0.871 and 0.726
  UBAC1.R.V Norm_10_1 to Norm_10_3: 0.932 and 1.030 and 1.078
  UBQLN4.M.C Norm_10_1 to Norm_10_3: 0.984 and 0.918 and 0.980
  UGT1A.M.V Norm_10_1 to Norm_10_3: 1.017 and 1.128 and 1.006
  ULK1_pS757.R.C Norm_10_1 to Norm_10_3: 1.125 and 0.823 and 0.899
  UQCRC2.M.C Norm_10_1 to Norm_10_3: 0.945 and 1.144 and 1.246
  UVRAG.R.C Norm_10_1 to Norm_10_3: 1.050 and 0.851 and 0.904
  VASP.R.V Norm_10_1 to Norm_10_3: 0.815 and 0.894
  VAV1.R.C Norm_10_1 to Norm_10_3: 1.035 and 0.844 and 0.890
  VEGFR.2.R.V Norm_10_1 to Norm_10_3: 0.901 and 0.958 and 1.012
  VEGFR.2_pY1175.R.C Norm_10_1 to Norm_10_3: 0.930 and 0.993
  VHL.EPPK1.M.C Norm_10_1 to Norm_10_3: 0.587 and 1.522 and 0.982
  VHL.R.C Norm_10_1 to Norm_10_3: 0.900 and 0.987
  Vinculin.M.V Norm_10_1 to Norm_10_3: 0.829 and 1.085 and 1.051
  WIPI1.R.C Norm_10_1 to Norm_10_3: 1.210 and 1.510 and 1.234
  WIPI2.R.C Norm_10_1 to Norm_10_3: 1.209 and 0.707 and 0.915
  WTAP.R.V Norm_10_1 to Norm_10_3: 0.900 and 1.764 and 1.008
  Wee1.R.C Norm_10_1 to Norm_10_3: 0.851 and 0.833 and 1.061
  Wee1_pS642.R.C Norm_10_1 to Norm_10_3: 0.901 and 0.776 and 1.023
  XBP.1.G.C Norm_10_1 to Norm_10_3: 0.989 and 1.187 and 1.403
  XIAP.R.C Norm_10_1 to Norm_10_3: 1.022 and 1.000
  XPA.M.V Norm_10_1 to Norm_10_3: 1.064
  XPF.R.C Norm_10_1 to Norm_10_3: 0.948 and 0.944
  XRCC1.R.C Norm_10_1 to Norm_10_3: 0.931 and 1.213
  YAP.R.C Norm_10_1 to Norm_10_3: 0.955 and 1.252 and 0.879
  YAP_pS127.R.V Norm_10_1 to Norm_10_3: 0.913 and 1.139 and 0.796
  YB1_pS102.R.V Norm_10_1 to Norm_10_3: 0.840 and 1.032
  YES1.R.V Norm_10_1 to Norm_10_3: 1.000 and 0.982
  YTHDF2.R.V Norm_10_1 to Norm_10_3: 1.206 and 1.258
  YTHDF3.R.C Norm_10_1 to Norm_10_3: 1.009 and 1.186 and 1.108
  ZAP.70.R.V Norm_10_1 to Norm_10_3: 1.012 and 0.977 and 0.883
  ZEB1.R.V Norm_10_1 to Norm_10_3: 0.854 and 1.114 and 0.924
Level 10 vs 0
  HLA.DQA1.R.V Norm_10 Average: 0.993
  HLA.DR.DP.DQ.DX.R.C Norm_10 Average: 1.057
  HMHA1.R.V Norm_10 Average: 0.922
  HNRNPK.R.V Norm_10 Average: 1.030
  HSP27.M.C Norm_10 Average: 0.958
  HSP27_pS82.R.V Norm_10 Average: 0.916
  HSP60.R.V Norm_10 Average: 0.926
  HSP70.R.C Norm_10 Average: 0.973
  Hexokinase.I.R.C Norm_10 Average: 1.225
  Hexokinase.II.R.V Norm_10 Average: 1.128
  Hif.1αR.C Norm_10 Average: 1.156
  Histone.H3.R.V Norm_10 Average: 0.957
  IDO.R.C Norm_10 Average: 0.957
  IGF1R_pY1135_Y1136.R.V Norm_10 Average: 0.918
  IGFBP2.R.V Norm_10 Average: 0.935
  IGFBP3.M.V Norm_10 Average: 0.971
  IGFRb.R.C Norm_10 Average: 0.953
  IL.6.R.C Norm_10 Average: 0.924
  IMP3.R.C Norm_10 Average: 0.953
  INPP4b.R.C Norm_10 Average: 1.029
  IR.b.R.C Norm_10 Average: 0.981
  IRF.1.R.V Norm_10 Average: 0.874
  IRF.3.R.V Norm_10 Average: 0.967
  IRS1.R.V Norm_10 Average: 0.929
  IRS2.R.C Norm_10 Average: 1.033
  JAB1.M.C Norm_10 Average: 1.009
  JNK2.R.V Norm_10 Average: 2.307
  JNK_pT183_Y185.R.C Norm_10 Average: 0.955
  Jagged1.R.V Norm_10 Average: 0.936
  Jak2.R.V Norm_10 Average: 0.959
  KAP1.R.V Norm_10 Average: 1.103
  KEAP1.R.V Norm_10 Average: 1.017
  LAD1.R.V Norm_10 Average: 0.908
  LC3A.B.R.C Norm_10 Average: 1.064
